Results from patent publication US6465432B1, “Isolated antioxidant peptides form casein and methods for preparing, isolating, and identifying antioxidant peptides” (Kraft Food Holdings, Inc., priority 2000, dated 2002).
No end group written: not given here.

Experiments:
Assay type in all cases: biochemical
[1] = Total reducing power assay using ABTS radical; conditions: for antioxidative activity in the ABTS radical assay: HPLC-isolated fractions of Phase I, concentrations not adjusted after HPLC; for reducing power in terms of scavenging pre-formed ABTS radical: synthesized peptide 0.0832 mM, Trolox 0.0208 mM, n=5
Procedure: (§1) Phase I fractions of the protein hydrolysates generated with various proteases in Example 1 were analyzed for their ability to prevent accumulation of free radicals derived from 2,2′-azino-bis(3-ethylbenzthiazoline-6-sulfonic acid) (ABTS). Both total antioxidative activity and total reducing power of protein hydrolysate using ABTS and preformed ABTS radical, respectively, were used. These two model systems allowed mechanistic information of antioxidative activity of protein hydrolysates to be obtained. Furthermore, the analysis provided specific data related to whether the protein hydrolysates have the capacity of scavenging radicals in an oxidation system.
Total reducing power assays using ABTS radical were performed according to the methods of Pellegrini et al., “Screening of Dietary Carotenoids and Carotenoid-Rich Fruit Extracts for Antioxidant Activities Applying 2,2 ′-Azinobis(3-ethylenebenzothiazoline-6-sulfonic acid Radical Cation Decolorization Assay,” Methods in Enzymology 299:379 (1999). This assay measures antioxidant capability as reducing power in terms of scavenging pre-formed ABTS radical. Equal volumes of lOmM PBS and sample (Phase I hydrolysate fractions as described in Example 1) were combined and 2.5 times the total volume (i.e., PBS and sample combined) of a working solution of ABTS radical was added. The mixture was agitated and absorbance at 734 nm was measured after 10 minutes of incubation at […]. Acetone or PBS was used as a blank where appropriate. The working solution of ABTS radical was prepared by adding 1 volume of a ABTS radical stock solution to 80 volumes of 10 mM PBS (pH 7.0) and adding, if necessary, PBS or ABTS stock solution to adjust the absorbance to about 0.83 at 734 nm. The ABTS radical stock solution contained 2.5 mM K2S2O8 and 6.9 mM ABTS.

[2] = ABTS total antioxidative activity assay (ABTS, metmyoglobin, H2O2; absorbance at 734 nm)
Procedure: as §1
Total antioxidant assays using ABTS were performed according to Cox et al., “Biological assays for cellular transformation,” Methods in Enzymology 238:277 (1994); and Plumb et al., “Are Whole Extracts and Purified Glucosinolates from Cruciferous Vegetables Antioxidants?,” Free Rad. Res. 25:75 (1996). The assay was performed in a total volume of 1.2 ml. Twenty-five microliters of sample (Phase I hydrolysate fractions as described in Example 1 or Trolox standard (2.5 mM) (Aldrich, Milwaukee, Wis.) were combined with 100 μl of ABTS solution (2.5 mM ABTS (Sigma, St. Louis, Mo.) in PBS), 180 μl of MetMb solution (50 μM Metmyoglobin made from mixing 1:1 v/v of 100 µM myoglobin (Sigma, St. Louis, Mo.) and 100 μM Metmyoglobin (Sigma, St. Louis, Mo.); and 100 μM potassium ferricyanide (Aldrich, Milwaukee, Wis.) in PBS), and 775 μl PBS. One-hundred and 20 microliters of 10 mM H2O2 were then added. The mixture was agitated and absorbance was read at 734 nm over a period of 10-15 min.

[3] = Hydroxyl radical (Fenton) assay; conditions: synthesized peptide 0.2083 mM, Trolox 0.0521 mM; n=5; FIG. 22
Procedure: An analysis was performed to evaluate the ability of the peptide samples (Phase I and II hydrolysate fractions as described in Example 1) to quench the hydroxyl radical. The hydroxyl radical is an exceptionally active agent that reacts nonselectively with all organic constituents of food. Consequently, it can directly initiate lipid oxidation in food systems. The capacity to quench hydroxyl radicals, therefore, should theoretically be a very important characteristics for food antioxidants.
The hydroxyl radical (Fenton) assay was performed according to the methods of Lee, B. J., et al., “Antioxidant effects of L-carnosine on liposomes and beef homogenates,” J. Food Sci. 62:931 (1997). For this assay, 945 μl buffer (0.1 M phosphate buffer, pH 7.4), 60 μl EDTA-FeCl3 solution (92 mM EDTA, 26 mM FeCI3 in 0.1 M phosphate buffer pH 7.4), 25 μl sample (Phase I and II hydrolysate fractions as described in Example 1 or Trolox standard (2.5 mM)), and 120 μl of 1 mM H2O2 were combined. To this solution, 50 μl of a deoxyribose-ascorbic acid solution (67 mM deoxyribose, 4.8 mM ascorbic acid, in 01 M phosphate buffer pH 7.4) was added, and the solution was mixed and incubateded at 37° C. for 1 hr. […] Absorbance of the solution is then read at 532 nm after cooling to room temperature. […]

[4] = synthesized peptide 0.0832 mM, Trolox 0.0208 mM, n=5

Molecule | antioxidative activity in the ABTS radical assay [1] | total antioxidative activity [2, 4] | reducing power in terms of scavenging pre-formed ABTS radical [1] | further results
YLGYLE [fragment of alpha S1-casein (amino acid residues 106˜111) from bovine milk] | strong antioxidative activity | – | – | –
LAYFYPE (Bovine) [Leu-Ala-Tyr-Phe-Tyr-Pro-Glu] | strong antioxidative activity | – | – | –
Cc1c(C)c2c(c(C)c1O)CCC(C)(C(=O)O)O2 (centres unmarked) [Trolox, reference compound] | – | – | – | total antioxidative activity ([2]; Phase I of milk protein hydrolysates, FIG. 2, PBS negative control, Trolox positive control): typical delay of initiation or lag phase of the oxidation system; time until after which oxidation was virtually totally suppressed ([2]; Trolox 0.0208 mM): > 2 h
Gln-Phe-Tyr [cyclic QFY] (not fully specified (bridges); printed as Gln-Phe-Tyr [cyclic QFY]; also: cyclic, kind not given here) [cyclic tripeptide, fragment of alpha S1-casein (amino acid residues 167-169) from bovine milk] | strong antioxidative activity | slightly stronger antioxidative activity | significantly (p<0.05) scavenged pre-formed ABTS radical | capacity to quench hydroxyl radicals [3]: slightly stronger capacity to quench hydroxyl radicals
RYLGYLE (Bovine) [Arg-Tyr-Leu-Gly-Tyr-Leu-Glu, fragment of alpha S1-casein (amino acid residues 105˜111) from bovine milk] | strong antioxidative activity | – | statistically significant when compared to PBS controls | –
AYFYPE [fragment of alpha S1-casein (amino acid residue 158˜163) from bovine milk] | strong antioxidative activity | significant (p<0.05) when compared to PBS controls | strong antioxidative activity | time within which oxidation reached maximal levels ([2]; synthesized peptide 0.0832 mM): ≤ 1.5 h
Gln-Phe-Tyr [linear QFY] | – | have antioxidative activity | significantly (p<0.05) scavenged pre-formed ABTS radical | capacity to quench hydroxyl radicals [3]: possess the capacity to quench hydroxyl radicals
